Values of other authors in patent US10426724B2, “Antihistamine compositions, combinations, and use thereof” (APTAPHARMA INC., priority 2016, dated 2019).

Biological target: histamine H1-receptors (Homo sapiens, UniProt P35367)
Conditions: from time of administration to symptomatic relief; Annals of Allergy, Asthma, & Immunology (1997), 79

Sequence of histamine H1-receptors (P35367 whole entry): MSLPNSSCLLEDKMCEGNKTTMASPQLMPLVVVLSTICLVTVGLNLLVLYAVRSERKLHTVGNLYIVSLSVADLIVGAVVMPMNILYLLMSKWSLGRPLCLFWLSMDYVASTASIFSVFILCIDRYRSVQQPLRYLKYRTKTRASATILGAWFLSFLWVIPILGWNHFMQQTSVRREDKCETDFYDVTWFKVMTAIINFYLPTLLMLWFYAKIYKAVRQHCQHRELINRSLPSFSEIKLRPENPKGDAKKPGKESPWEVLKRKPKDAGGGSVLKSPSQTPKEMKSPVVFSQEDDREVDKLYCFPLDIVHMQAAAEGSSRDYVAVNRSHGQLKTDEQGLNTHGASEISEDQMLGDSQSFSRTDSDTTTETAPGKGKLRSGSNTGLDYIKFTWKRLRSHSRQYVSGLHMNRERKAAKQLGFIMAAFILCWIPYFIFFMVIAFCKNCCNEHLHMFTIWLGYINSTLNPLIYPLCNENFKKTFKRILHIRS

O=C(O)COCCN1CCN(C(c2ccccc2)c2ccc(Cl)cc2)CC1 (stereo not shown) [cetirizine]
lag time before onset of action: several hours
